Patent publication US20040058948A1, “Mappicine analogs, methods of inhibiting retroviral reverse transcriptase and methods of treating retroviruses” (priority 2002, published 2004)
Where “and” joins values, the source holds several entries; their conditions need not be identical. Equal values may be shown once.

Legend:
[1] = target: T1, RNA-dependent DNA polymerase activity of HIV reverse transcriptase (Human immunodeficiency virus type 1 group M subtype B, UniProt P04585); experiment: RNA-dependent DNA polymerase activity assay of HIV reverse transcriptase; type: biochemical, HIV-1; conditions: 10 μM inhibitor concentration, activity with analog / without analog x 100; for remaining activity at 10 µM: read-out: Residual activity (%) Polymerase
T1 construct: made in house
Method: In separate, representative assays, mappicine analogs were tested for their ability to inhibit the RNA-dependent DNA polymerase activity of HIV reverse transcriptase and for their ability to inhibit the RNase H activity of HIV reverse transcriptase. The assay for RNA-dependent DNA polymerase activity is discussed in Borkow, G. et al., “Inhibition of the Ribonuclease H and DNA Polymerase Activities of HIV-1 Reverse Transcriptase by N-(4-tert-Butylbenzoyl)-2-hydroxy-1-naphthaldehyde Hydrazone,” Biochemistry 1997, 36, 3179-3185, a copy of which is attached hereto, and the disclosure of which is incorporated herein by reference. Assays were carried out in the absence and in the presence of mappicine analogs (10 μM final concentration). The results are reported as % residual activity, which is the RNA-dependent DNA polymerase activity of the enzyme in the presence of the mappicine analog divided by the RNA-dependent activity of the enzyme in the absence of the mappicine analog, multiplied by 100.

[2] = target: RNase H activity of HIV reverse transcriptase (Human immunodeficiency virus type 1 group M subtype B, UniProt P04585); experiment: Fluorescence (FRET)-based RNase H activity assay of HIV reverse transcriptase; type: biochemical, HIV-1; parameters: final concentration of 2.5 nM of the p51/p66 RT heterodimer in the assay; made in house; conditions: 10 μM inhibitor concentration, activity with analog / without analog x 100; for remaining activity at 10 µM: read-out: Residual activity (%) RNase H
Method: Recently, a fluorescence-based assay to perform preliminary screens in search of HIV RNase H inhibitors has been developed. The assay, which is carried out in 96-well microplates and is adaptable to robotics, is the first high-throughput screen for RNase H and is described in further detail in the Experimental section. HIV-1 RT and human RNase H were cloned, and thus comparative analysis of inhibitor action could be conducted simultaneously.
The assay for RNase H activity of HIV reverse transcriptase was the fluorescence-based assay described in detail in the Experimental section and discussed in U.S. Provisional Patent Application Serial No. 60/318,359. Assays were carried out in the absence and in the presence of mappicine analogs (10 μM final concentration). The results are reported as % residual activity, which is the RNase H activity of the enzyme in the presence of the mappicine analog divided by the RNase H activity of the enzyme in the absence of the mappicine analog, multiplied by 100. Alternatively, the results are reported as % inhibition, which is calculated as the ratio of the RNase H activity of the enzyme in the presence of the mappicine analog to the enzyme activity in the absence of the mappicine analog, multiplied by 100, and then subtracting this number from 100.
Assay for Ribonuclease H Activity Based on Fluorescence Resonance Energy Transfer (FRET)
Preparation of the Fluorophore-RNA/Quencher-DNA Hybrid Duplex Substrate.
The RNA/DNA hybrid duplex substrate for use in the assay comprises an RNA oligonucleotide of sequence 5′-GAU CUG AGC CUG GGA GCU-3′, modified at the 3′-end with Aminolink-2 and derivatized with fluorescein isothiocyanate, to provide a modified RNA oligonucleotide of the sequence 5′-GAU CUG AGC CUG GGA GCU-fluorescein-3′, annealed to a complementary DNA oligonucleotide of the sequence 5′-AGC TCC CAG GCT CAG ATC-3′ modified at the 5′-end with Aminolink-2 and derivatized with the FRET acceptor DABCYL succinimidyl ester, to provide a modified DNA oligonucleotide of the sequence 5′-DABCYL-AGC TCC CAG GCT CAG ATC-3′.
To prepare the 3′-fluorescein-RNA/5′-DABCYL-DNA hybrid duplex substrate, a known amount of 3′-fluorescein-RNA was dissolved in 20 mM Tris buffer (pH 8.0, 37° C.) to provide a final concentration of 5 μM. Two equivalents of the 5′-DABCYL-DNA oligonucleotide were added, and the mixture was heated to 90° C. for 5 min and cooled slowly to room temperature to allow duplex formation. The positioning of the fluorescein donor at the 3′-end of the RNA oligonucleotide and the DABCYL acceptor at the 5′-end of the DNA oligonucleotide provides a very close proximity of the donor and acceptor that results in a very intense quenching of the fluorescein emission in the intact RNA/DNA hybrid duplex substrate due to the spectral overlap of the fluorescence emission of fluorescein with the absorption spectrum of DABCYL. In addition, DABCYL is non-fluorescent, and thus cannot contribute any light emission. Both of these factors result in a very low background and provide a high signal-to-noise in the assay measurements. The ratio of the donor fluorescence in the absence and in the presence of its quencher is approximately fifteen-fold.
Microplate Assay Protocol for the Measurement of RNase H Activity Using the RNA/DNA Hybrid Duplex Substrate.
Reaction assay mixtures contained 5 μl of a stock solution of 2.5 μM RNA/DNA hybrid duplex substrate added to 85 μl of assay buffer (50 mM Tris, pH 8.0, 37° C., containing 60 mM KCl and 2.5 mM MgCl2), prepared in the wells of a 96-well fluorescence microtiter plate, and warmed to 37° C. using the temperature control of the SpectraMax Gemini XS microplate spectrofluorometer (Molecular Devices). Reactions were started by the addition of 5 μl of a solution of recombinant HIV-1 reverse transcriptase (usually providing a final concentration of 2.5 nM of the p51/p66 RT heterodimer in the assay), and mixing using the automatic mixing function of the microplate spectrofluorometer. […]

SMILES	Residual activity (%) Polymerase [1] [%]	Residual activity (%) RNase H [2] [%]	other results
CCCCCCc1c2c(nc3ccc(C)cc13)-c1cc(C(O)C(C)(C)C)c(C)c(=O)n1C2 (racemic) [8Cβ]	111	93	
CCCCCCc1c2c(nc3ccccc13)-c1cc(C(O)C(C)(C)C)c(C)c(=O)n1C2 (stereo not drawn) [8Aβ]	103	91	
COc1ccc2nc3c(c(-c4ccccc4)c2c1)Cn1c-3cc(C(=O)CCC2CCCCC2)c(C)c1=O [3Dδκ]	81	97	
CCCCCCc1c2c(nc3ccc(C)cc13)-c1cc(C(=O)CC)c(C)c(=O)n1C2 [8Cακ]	31	92	
CCC(=O)c1cc2n(c(=O)c1C)Cc1c-2nc2ccc(F)cc2c1[Si](C)(C)C(C)(C)C [4Bακ]	42	77	
CCCCCCc1c2c(nc3ccccc13)-c1cc(C(=O)C(C)(C)C)c(C)c(=O)n1C2 [8Aβκ]	76	96	
Cc1ccc2nc3c(c([Si](C)(C)C)c2c1)Cn1c-3cc(C(O)Cc2ccccc2)c(C)c1=O (racemic) [5Cε]	87	93	
CCCCCCc1c2c(nc3ccc(F)cc13)-c1cc(C(=O)CC)c(C)c(=O)n1C2 [8Bακ]	64	103	
CCCCCCc1c2c(nc3ccc(OC)cc13)-c1cc(C(=O)CC)c(C)c(=O)n1C2 [8Dακ]			Residual activity (%) Polymerase ([1]; 10 µM): 90% and 51%; Residual activity (%) RNase H ([2]; 10 µM): 88% and 84%
CCC(O)c1cc2n(c(=O)c1C)Cc1c-2nc2ccc(F)cc2c1[Si](C)(C)C (stereo not drawn) [5Bα]	82	105	
CCCCCCc1c2c(nc3ccccc13)-c1cc(C(=O)CCC3CCCCC3)c(C)c(=O)n1C2 [8Aδκ]	63	97	
CCC(=O)c1cc2n(c(=O)c1C)Cc1c-2nc2ccc(C)cc2c1-c1ccccc1 [3Cακ]	71	99	
Cc1c(C(=O)CCC2CCCCC2)cc2n(c1=O)Cc1c-2nc2ccccc2c1[Si](C)(C)C [5Aδκ]	90	75	
CCC(O)c1cc2n(c(=O)c1C)Cc1c-2nc2ccccc2c1[Si](C)(C)C (racemic) [AG 1M]			Residual activity (%) Polymerase ([1]; 10 µM): 89%; Residual activity (%) RNase H ([2]; 10 µM): 73%
Cc1ccc2nc3c(c([Si](C)(C)C)c2c1)Cn1c-3cc(C(O)C(C)(C)C)c(C)c1=O (racemic) [5Cβ]	72	80	
Cc1ccc2nc3c(c(-c4ccccc4)c2c1)Cn1c-3cc(C(O)CCC2CCCCC2)c(C)c1=O (stereo not drawn) [3Cδ]	74	93	
Cc1c(C(O)C(C)(C)C)cc2n(c1=O)Cc1c-2nc2ccc(F)cc2c1-c1ccccc1 (racemic) [3Bβ]	78	75	
Cc1c(C(=O)C(C)(C)C)cc2n(c1=O)Cc1c-2nc2ccccc2c1[Si](C)(C)C(C)(C)C [4Aβκ]	79	70	
CCC(=O)c1cc2n(c(=O)c1C)Cc1c-2nc2ccc(OC)cc2c1-c1ccccc1 [3Dακ]	76	104	
CCc1c2c(nc3ccc(OC(C)=O)cc13)-c1cc(C(O)CC)c(C)c(=O)n1C2 (stereo not drawn) [AG 7M, 2-Acetoxy-12-ethyl-7-(1-hydroxypropyl)-8-methyl-11H-indolizino[1,2-b]quinolin-9-one]			remaining activity at 10 µM [1]: 99%; remaining activity at 10 µM [2]: 63%
CCCCCCc1c2c(nc3ccc(C)cc13)-c1cc(C(=O)Cc3ccccc3)c(C)c(=O)n1C2 [8Cεκ]	66	86	
CCCCCCc1c2c(nc3ccc(OC)cc13)-c1cc(C(O)C(C)(C)C)c(C)c(=O)n1C2 (racemic) [8Dβ]	68	67	
Cc1ccc2nc3c(c(-c4ccccc4)c2c1)Cn1c-3cc(C(=O)CCC2CCCCC2)c(C)c1=O [3Cδκ]	65	93	
Cc1c(C(O)CCC2CCCCC2)cc2n(c1=O)Cc1c-2nc2ccccc2c1-c1ccccc1 (racemic) [3Aδ]	32	104	
COc1ccc2nc3c(c([Si](C)(C)C(C)(C)C)c2c1)Cn1c-3cc(C(O)Cc2ccccc2)c(C)c1=O (racemic) [4Dε]	49	76	
Cc1c(C(=O)CCC2CCCCC2)cc2n(c1=O)Cc1c-2nc2ccc(F)cc2c1-c1ccccc1 [3Bδκ]	59	93	
CCCCCCc1c2c(nc3ccc(C)cc13)-c1cc(C(O)CCC3CCCCC3)c(C)c(=O)n1C2 (stereo not drawn) [8Cδ]	73	72	
CCCCCCc1c2c(nc3ccc(F)cc13)-c1cc(C(=O)C(C)(C)C)c(C)c(=O)n1C2 [8Bβκ]	44	81	
Cc1ccc2nc3c(c([Si](C)(C)C)c2c1)Cn1c-3cc(C(=O)C(C)(C)C)c(C)c1=O [5Cβκ]	76	92	
CCc1c2c(nc3ccc(O)cc13)-c1cc(C(O)CC)c(C)c(=O)n1C2 (stereo not drawn) [AG 8M, 12-Ethyl-2-hydroxy-7-(1-hydroxypropyl)-8-methyl-11H-indolizino[1,2-b]quinolin-9-one]			remaining activity at 10 µM [1]: 69%; remaining activity at 10 µM [2]: 87%
